Data reported in ChEMBL document CHEMBL1201862, “PubChem BioAssay data set” (2004).
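Method: 48-hour compound exposure of cells in 96-well plates, five concentrations, linear interpolation of endpoints. The concentration for 50% growth inhibition is given as GI50.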 Active and inactive are the calls of the source. Rule as the data show it: active = GI50 up to about 1.1 µM and inactive = higher.

Experiments:
Assay in all cases: DTP human tumour cell line panel, 48 h
[1] = tested on: MDA-MB-231
[2] = tested on: BT-549
[3] = tested on: OVCAR-5
[4] = tested on: OVCAR-8
[5] = tested on: K562
[6] = tested on: UACC-257
[7] = tested on: SK-MEL-5
[8] = tested on: NCI/ADR-RES
[9] = tested on: MOLT-4
[10] = tested on: NCI-H226
[11] = tested on: COLO 205
[12] = tested on: RPMI-8226
[13] = tested on: RXF 393
[14] = tested on: HCT-15
[15] = tested on: SNB-19
[16] = tested on: KM12
[17] = tested on: SN12C
[18] = tested on: LOX IMVI
[19] = tested on: Malme-3M
[20] = tested on: SR

Row | Structure (SMILES) | GI50 [1] | GI50 [2] | GI50 [3] | GI50 [4] | GI50 [5] | GI50 [6] | GI50 [7] | GI50 [8] | GI50 [9] | GI50 [10] | GI50 [11] | GI50 [12] | GI50 [13] | GI50 [14] [µM] | GI50 [15] | GI50 [16] | GI50 [17] | GI50 [18] | GI50 [19] | GI50 [20]
1 | Cc1c2c(C(N)=O)nccc2c(C)c2c1c1ccccc1n2Cc1ccccc1 | 9.75 µM (inactive) | 29.3 µM (inactive) | 28.6 µM (inactive) | 10.6 µM (inactive) | 22.7 µM (inactive) | 43.3 µM (inactive) | 34.8 µM (inactive) | 9.75 µM (inactive) | 32.7 µM (inactive) | 23.7 µM (inactive) | > 10 µM (inactive) | 26.8 µM (inactive) | 11.9 µM (inactive) | 16 | 14.8 µM (inactive) | 21.6 µM (inactive) | 17.7 µM (inactive) | 4.41 µM (inactive) |  | 
2 | Cc1ccc(S(=O)(=O)N/N=C2/CC[C@H](C(C)(C)C)C[C@@H]2C)cc1 | 21.2 µM (inactive) | 16.2 µM (inactive) | 18.2 µM (inactive) | 16 µM (inactive) | 16.6 µM (inactive) | 13.9 µM (inactive) | 13.8 µM (inactive) | 15 µM (inactive) | 12.5 µM (inactive) | 13.8 µM (inactive) | 17 µM (inactive) | 33.4 µM (inactive) |  | 16.6 | 18.5 µM (inactive) | 22.6 µM (inactive) | 16.3 µM (inactive) | 14.7 µM (inactive) | 16.1 µM (inactive) | 31.8 µM (inactive)
3 | CC(O)(CCCCCl)c1nc2ccccc2s1 (configuration not stated) | 96.4 µM (inactive) | 67.9 µM (inactive) | > 100 µM (inactive) | > 100 µM (inactive) | 89.9 µM (inactive) | > 100 µM (inactive) | 51.4 µM (inactive) | 98.2 µM (inactive) | 50.7 µM (inactive) | > 100 µM (inactive) | > 100 µM (inactive) | 97.5 µM (inactive) |  | > 100 | > 100 µM (inactive) | > 100 µM (inactive) | > 100 µM (inactive) | 48.4 µM (inactive) |  | 53 µM (inactive)
4 | C/C1=C/C2=CC(C)C[C@@H]2C(=O)[C@]2(C)C(=O)CC(C)(C)[C@H]2CC1=O (some centres not stated) | > 50 µM (inactive) | > 50 µM (inactive) | > 50 µM (inactive) | > 50 µM (inactive) | 32.3 µM (inactive) | > 50 µM (inactive) | > 50 µM (inactive) | > 50 µM (inactive) | > 50 µM (inactive) | > 50 µM (inactive) | > 50 µM (inactive) | 34.8 µM (inactive) |  | > 50 | > 50 µM (inactive) | > 50 µM (inactive) | > 50 µM (inactive) | > 50 µM (inactive) | > 50 µM (inactive) | 
5 | CCOc1ccc(N/C(=C(/C(Cl)=C(/Cl)N(CC)CC)[N+](=O)[O-])n2nnc3ccccc32)cc1 | 10.7 µM (inactive) | 19.8 µM (inactive) | 33.3 µM (inactive) | 16.2 µM (inactive) | > 100 µM (inactive) | 38.7 µM (inactive) |  | 21.1 µM (inactive) | > 100 µM (inactive) | 37.8 µM (inactive) | 21.6 µM (inactive) | 26.9 µM (inactive) | 14.4 µM (inactive) | 19.1 | 31.7 µM (inactive) | 12 µM (inactive) | 21.6 µM (inactive) |  | 17.9 µM (inactive) | 
6 | COc1cc2c(cc1OC)C13CCN4CC5=CCOC6CC(=O)N2C1C6C5CC43O (configuration not stated) | > 100 µM (inactive) | > 100 µM (inactive) | > 100 µM (inactive) | > 100 µM (inactive) | > 100 µM (inactive) | > 100 µM (inactive) | > 100 µM (inactive) | > 100 µM (inactive) | > 100 µM (inactive) | > 100 µM (inactive) | > 100 µM (inactive) | > 100 µM (inactive) |  | > 100 | > 100 µM (inactive) | > 100 µM (inactive) | > 100 µM (inactive) | > 100 µM (inactive) | > 100 µM (inactive) | 
7 | Cc1ccc(/N=N/C(=N/NC(=O)c2cc(Cl)ccc2C(=O)c2ccccc2)c2ccc(N(CCC#N)CCC#N)cc2C)cc1 | 4.06 µM (inactive) | 15.4 µM (inactive) | 21.3 µM (inactive) | 11 µM (inactive) | 17.4 µM (inactive) | 15.9 µM (inactive) | 14 µM (inactive) | 21.1 µM (inactive) | 4.99 µM (inactive) | 10.4 µM (inactive) | 9.14 µM (inactive) | 10.2 µM (inactive) | 0.0957 µM (active) | 7.55 | 33.2 µM (inactive) | 10.9 µM (inactive) | 9.75 µM (inactive) |  | 15.7 µM (inactive) | 
8 | O=c1n(-c2ccccc2)c(=O)n2n1C1CCC2CC1 | > 100 µM (inactive) | > 100 µM (inactive) | > 100 µM (inactive) | > 100 µM (inactive) | > 100 µM (inactive) | > 100 µM (inactive) | > 100 µM (inactive) | > 100 µM (inactive) | > 100 µM (inactive) | > 100 µM (inactive) | > 100 µM (inactive) | > 100 µM (inactive) |  | > 100 | > 100 µM (inactive) | > 100 µM (inactive) | > 100 µM (inactive) | > 100 µM (inactive) |  | > 100 µM (inactive)
9 | CC(NC(=O)/C(=C/c1ccccc1O)NC(=O)c1ccccc1)C(=O)O (configuration not stated) | 22 µM (inactive) | 18.9 µM (inactive) | > 100 µM (inactive) | 15.7 µM (inactive) | > 100 µM (inactive) | 70 µM (inactive) | 55.2 µM (inactive) | 12.7 µM (inactive) | > 100 µM (inactive) | 14 µM (inactive) | > 100 µM (inactive) | > 100 µM (inactive) | 21.8 µM (inactive) | 24.1 | 20.6 µM (inactive) | 16.8 µM (inactive) | 21.6 µM (inactive) | 33.2 µM (inactive) | 21 µM (inactive) | 
10 | O=C1CC(O)c2c1csc2Br (configuration not stated) | 23.8 µM (inactive) | 23.2 µM (inactive) | > 100 µM (inactive) | 23.3 µM (inactive) | 25.6 µM (inactive) | 10.7 µM (inactive) | > 100 µM (inactive) | 20.7 µM (inactive) | 20.3 µM (inactive) |  | 41.3 µM (inactive) | 14.3 µM (inactive) | 17.3 µM (inactive) | 18.5 | 34.2 µM (inactive) | 18.7 µM (inactive) | 20.7 µM (inactive) | 16.4 µM (inactive) | 30.8 µM (inactive) | 
11 | COc1ccc(C2OC(N)=C(C#N)C3=C2CCCC3C)cc1OC (configuration not stated) | > 100 µM (inactive) | > 100 µM (inactive) | > 100 µM (inactive) | > 100 µM (inactive) | > 100 µM (inactive) | > 100 µM (inactive) | > 100 µM (inactive) | > 100 µM (inactive) | > 100 µM (inactive) | > 100 µM (inactive) | > 100 µM (inactive) | > 100 µM (inactive) | > 100 µM (inactive) | > 100 | > 100 µM (inactive) | > 100 µM (inactive) | > 100 µM (inactive) | > 100 µM (inactive) | > 100 µM (inactive) | 
12 | CC(=O)N1c2ccccc2C(C)(C)OC1C(Cl)(Cl)Cl (configuration not stated) | 39.6 µM (inactive) | 35.8 µM (inactive) | 44.8 µM (inactive) | 39.5 µM (inactive) |  | 26.5 µM (inactive) | 23.8 µM (inactive) | 31.7 µM (inactive) | 14.4 µM (inactive) | 87.7 µM (inactive) | 30.3 µM (inactive) | 14.1 µM (inactive) |  | 32.2 | 44.7 µM (inactive) | 30.1 µM (inactive) | 29.9 µM (inactive) |  | 35.9 µM (inactive) | 
13 | Cc1ccsc1/C=N/Nc1cnccn1 | > 100 µM (inactive) | > 100 µM (inactive) | 94 µM (inactive) | 27.4 µM (inactive) | > 100 µM (inactive) | > 100 µM (inactive) | > 100 µM (inactive) | > 100 µM (inactive) | 78.7 µM (inactive) | > 100 µM (inactive) | > 100 µM (inactive) | > 100 µM (inactive) | > 100 µM (inactive) | > 100 | > 100 µM (inactive) | 99.5 µM (inactive) | > 100 µM (inactive) | 76.4 µM (inactive) | > 100 µM (inactive) | 
14 | N/C(=N\O)N/N=C/c1cc(Br)cc(Br)c1O | 4.6 µM (inactive) | 2.44 µM (inactive) | 9.86 µM (inactive) | 2.37 µM (inactive) | 2.65 µM (inactive) | 14 µM (inactive) | 6.89 µM (inactive) | 1.08 µM (active) | 1.12 µM (active) | 1.29 µM (inactive) | 13 µM (inactive) | 2.61 µM (inactive) | 4.32 µM (inactive) | 0.67 | 7.11 µM (inactive) | 5.08 µM (inactive) | 1.86 µM (inactive) | 2.35 µM (inactive) | 2.96 µM (inactive) | 
15 | CC(=O)OCC1OC(n2c(N)c(C#N)c(-c3ccc(C)cc3)c(C#N)c2=S)C(OC(C)=O)C(OC(C)=O)C1OC(C)=O (configuration not stated) | 44.9 µM (inactive) | 37.3 µM (inactive) | 53.5 µM (inactive) | 15.2 µM (inactive) | 40.5 µM (inactive) | 19.2 µM (inactive) | 11.1 µM (inactive) | 30 µM (inactive) |  | 3.53 µM (inactive) | 16 µM (inactive) | 29.2 µM (inactive) | 18.7 µM (inactive) | 38 | 18.8 µM (inactive) | 79.1 µM (inactive) | 15.6 µM (inactive) | 32.7 µM (inactive) | 17.8 µM (inactive) | 
